For data set [1], the target named is D2 receptor (Homo sapiens (Human), UniProt P14416). As to the kind of experiment: D2 radioligand binding assay.
Data set [2] deals with T1, human D2R/β-arrestin (Homo sapiens (Human), UniProt P14416). To be noted: CHO-K1 cells expressing human D2R/β-arrestin, antagonist mode, quinpirole 130 nM; for pIC50: read-out: β-arrestin Antagonist.
Data set [3] addresses T1, human D2R/β-arrestin. As to the kind of experiment: cell-based. Particulars: cAMP Antagonist.
The target of data set [4] is T1, human D2R/β-arrestin. The data set can be described thus: Gi/cAMP agonist assay (Lance Ultra cAMP, forskolin). It counts as cell-based. Particulars: CHO-K1 cells expressing human D2R/β-arrestin; agonist mode, 2.5 μM forskolin. On the procedure:
Eu-cAMP tracer solution (10 μl, PerkinElmer, 360 μl of Tracer in 17.64 ml kit buffer) and ULight-anti-cAMP solution (10 μl, 120 μL antibody in 17.88 ml kit buffer) was then added to each well.

The target of data set [5] is T1, human D2R/β-arrestin. The data set can be described thus: β-arrestin agonist assay (PathHunter). The format is cell-based. To be noted: CHO-K1 cells expressing human D2R/β-arrestin; agonist mode. The protocol:
The detection reagent (9.6 μL, Buffer:Emerald II:Galactor-Star in a 19:5:1 ratio, i.e., 14.06 mL:3.7 mL:0.74 mL=18.5 mL) was then added to the agonist plates.

The target in data set [6] is T1, human D2R/β-arrestin. To be noted: read-out: cAMP Antagonist; CHO-K1 cells expressing human D2R/β-arrestin; antagonist mode, 2.5 μM forskolin and 2.7 nM quinpirole.
The nature of data set [7]: Brain protein binding. The format is in vitro ADME.
Data set [8] can be described thus: Pharmacokinetic and brain distribution study in mice. The format is in vivo. Particulars: single intraperitoneal dose 30 mg/kg, male C57BL/6 mice; for half-life / AUC / Cmax: mouse, ip. The protocol: Pharmacokinetic Studies on Mice Brains
Twelve male C57BL/6 mice were weighed and administered intraperitoneally with a dose of test compound (Examples 90, 157, 125) solution formulation. The dosing volume administered for the intraperitoneal route was at 10 mL/kg. Blood samples (approximately […]) were collected from retro-orbital plexus of each mouse under light isoflurane anesthesia at 0.08, 0.5, 1, 2, 4, and 8 hr. Following the collection of blood, plasma was also harvested by centrifugation and stored at −70° C. until analysis. After collection of plasma, the animals were euthanized and brain samples were isolated at 0.08, 0.5, 1, 2, 4, and 8 hr. Tissue samples (brain) were homogenized using ice-cold phosphate buffer saline (pH 7.4) and homogenates were stored below −70° C. until analysis. Total homogenate volume was three times the tissue weight. Concentrations of test compound in mouse plasma and brain samples were determined by LC-MS/MS method.
Identical extraction procedures were used for the plasma/brain homogenate study samples and the spiked plasma calibration standards: A 25 μL sample of either study sample (plasma/brain) or spiked calibration standard was added to individual pre-labeled micro-centrifuge tubes. A volume of 100 μL of IS (antipyrine, 500 ng/mL) prepared in acetonitrile was then added to the micro-centrifuge tubes, except in a sample used as a negative control where only acetonitrile was added and vortexed for 5 minutes. Samples were centrifuged for 20 minutes at the speed of 4000 rpm at 4° C. Following centrifugation, 100 μL of the supernatant was sampled from each centrifuge tube and transferred into insert vials. These vials remained within the auto-sampler for the LC/MS/MS analysis. Standards used for calibration were prepared by spiking 10 μL of the test compound in 190 μL of control (used as a negative control) mouse plasma/brain homogenate.
The plasma and brain concentration-time data of test compounds was provided for data analysis. The plasma and brain concentration-time data was then used for the pharmacokinetic analysis. Non-Compartmental-Analysis module in Phoenix® WinNonlin® (Version 6.3) was used to assess the pharmacokinetic parameters. Peak plasma concentrations (Cmax) and time for the peak plasma concentrations (Tmax) were the observed values. The areas under the concentration time curve (AUClast and AUCinf) were calculated by linear trapezoidal rule. The terminal elimination rate constant, ke was determined by regression analysis of the linear terminal portion of the log plasma concentration-time curve.
Illustrative results are presented in FIG. 2, the pharmacokinetic parameters are as follow: […]

Data set [9] deals with T1, human D2R/β-arrestin. The data set can be described thus: cell-based. Particulars: β-arrestin Antagonist.
The mark [10] stands for this setting: CHO-K1 cells expressing human D2R/β-arrestin, antagonist mode, 2.5 μM forskolin and 2.7 nM quinpirole.
[11] abbreviates: brain, read-out: Brain T1/2 (converted).
Setting [12] is: plasma, read-out: Plasma T1/2 (converted).
[13] abbreviates: CHO-K1 cells expressing human D2R/β-arrestin, antagonist mode, quinpirole 130 nM.

pEC50, pIC50, pKi: −log10 of the molar value. Like-named read-outs stand apart in the source and are kept apart here.

We go through 16 compounds from US11498896B2 (The Broad Institute, Inc., priority 2014, dated 2022).

Sequence of D2 receptor (P14416 whole entry): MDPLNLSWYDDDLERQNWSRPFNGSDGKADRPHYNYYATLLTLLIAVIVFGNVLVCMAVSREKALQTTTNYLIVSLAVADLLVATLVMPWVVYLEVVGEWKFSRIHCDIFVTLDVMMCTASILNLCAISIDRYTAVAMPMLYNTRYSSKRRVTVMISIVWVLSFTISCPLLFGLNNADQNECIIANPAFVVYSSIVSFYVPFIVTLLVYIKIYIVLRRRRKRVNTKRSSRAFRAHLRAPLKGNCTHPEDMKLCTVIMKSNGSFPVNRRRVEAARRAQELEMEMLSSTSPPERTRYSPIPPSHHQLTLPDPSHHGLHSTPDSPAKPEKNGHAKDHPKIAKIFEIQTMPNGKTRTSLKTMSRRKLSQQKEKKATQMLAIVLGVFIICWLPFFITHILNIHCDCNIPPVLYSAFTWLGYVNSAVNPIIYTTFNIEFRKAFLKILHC
T1 sequence (P14416 whole entry): as above

The term pKi denotes −log10 of the Ki, conventionally taken in molar units. A word on the pEC50: it is the negative decadic logarithm of the EC50, by convention in mol/L. High values mean a small EC50, low ones a large EC50. In turn, `CC1(C(=O)Nc2ccccc2)CCN(CC2COc3ccccc3O2)CC1` (single isomer, unassigned) [Compound 204b, 1-((2,3-dihydrobenzo[b][1,4]dioxin-2-yl)methyl)-4-methyl-N-phenylpiperidine-4-carboxamide] gave a pKi in data set [1] of 6.00 to 7.00. For the same compound, the pIC50 in data set [2] was 5.00 to 6.00; in [3] (setting [10]), 6.00 to 7.00. For the same compound, the results for the pEC50 in [4] and in [5] were more than 7.00 and less than 4.52, respectively.

In [1], `CC1(Oc2ccc(Cl)cc2)CCN(CCOc2ccc3ncsc3c2)C1` (stereo not shown) [Compound 18b] had a pKi of 5.00 to 6.00. Besides, the values for the pIC50 in data set [2] and in [6] were 5.00 to 6.00 and less than 4.52, respectively. The results for the pEC50 in data set [4] and in data set [5] were 6.00 to 7.00 and less than 4.52, respectively.

The term fraction unbound denotes free concentration divided by total concentration. Usually AUC stands for the area under the concentration-time curve, a measure of exposure. The term Cmax denotes the peak of the concentration-time curve. For `CC1(Oc2ccc(Cl)cc2)CCN(CCOc2ccc(C(F)(F)F)cc2)CC1` [Compound 125, 4-(4-Chlorophenoxy)-4-methyl-1-(2-(4-(trifluoromethyl)phenoxy)ethyl) piperidine], the free fraction (fraction unbound) in [7] was 0.002. Moreover, the “Brain AUC” value in data set [8] (brain) was 222.3 µmol·h/L. The “Brain Cmax” value in [8] (brain) is 37.9 µmol/L. Also, the values for the half-life in data set [8] (setting [11]) and in [8] (setting [12]) were 420 min and 804 min, respectively. In [8] (plasma), the AUC is 69.6 µM·h. This compound showed a Cmax in [8] (plasma) of 19.8 µM. Moreover, the pKi in [1] was 5.00 to 6.00. In addition, the pIC50 in data set [9] (setting [13]) and in data set [3] (setting [10]) was less than 4.52 in each case. The figures for the pEC50 in data set [4] and in [5] were 6.00 to 7.00 and 4.52 to 5.00, respectively.

As for `CC1(Oc2ccc(Cl)cc2)CCN(CCOc2ccc(F)cc2C(F)(F)F)CC1` [Compound 157, 4-(4-chlorophenoxy)-1-(2-(4-fluoro-2-(trifluoromethyl)phenoxy)ethyl)-4-methylpiperidine], the free fraction (fraction unbound) in data set [7] was less than 0.001. Also, the “Brain AUC” value in data set [8] (brain) was determined as 70.4 µmol·h/L. Further, in [8] (brain), the “Brain Cmax” value stood at 7.03 µmol/L. For the same compound, the half-life in data set [8] (setting [11]) is 360 min; in data set [8] (setting [12]) it was 372 min. The compound also came in with an AUC in data set [8] (plasma) of 14 µM·h. In [8] (plasma), this compound showed a peak concentration (Cmax) of 2.47 µM. For the same compound, in [1], the pKi was 6.00 to 7.00. Also, the pIC50 in [9] (setting [13]) and in data set [3] (setting [10]) was 6.00 to 7.00 in each case. Besides, the pEC50 in data set [4] is 6.00 to 7.00; in data set [5] it was less than 4.52.

In [1], `CC1(Oc2ccncc2)CCN(CCOc2ccccc2)C1` (stereo not shown) [Example 59b] gave a pKi of 4.52 to 5.00. Also, the pIC50 in [2] and in [6] was less than 4.52 throughout. The pEC50 in data set [4] was more than 7.00; in [5], 5.00 to 6.00.

Consider `CC1(Oc2ccc(Cl)cc2)CCN(CCOc2ccccc2F)CC1` [Example 86, 4-(4-chlorophenoxy)-1-(2-(2-fluorophenoxy)ethyl)-4-methylpiperidine], for which, in [1], the pKi is more than 7.00. Also, the pIC50 in data set [9] (setting [13]) and in data set [3] (setting [10]) was less than 4.52 in each case. For the same compound, the pEC50 in data set [4] and in data set [5] was more than 7.00 in each case.

In data set [1], `CC1(Oc2ccccc2)CCN(CCOc2ccccc2C(F)(F)F)CC1` [Example 91, 4-methyl-4-phenoxy-1-(2-(2-(trifluoromethyl)phenoxy)ethyl)piperidine] had a pKi of 6.00 to 7.00. Further, the pIC50 is more than 7.00 in [9] (setting [13]) and less than 4.52 in data set [3] (setting [10]). Moreover, the pEC50 is more than 7.00 in data set [4] and less than 4.52 in [5].

For the compound `CC1(Oc2ccc(Cl)cc2)CCCN(CCOc2ccccc2)C1` (stereo not shown) [Example 96, 3-(4-chlorophenoxy)-3-methyl-1-(2-phenoxyethyl)piperidine], the pKi in data set [1] is 6.00 to 7.00. Moreover, the pIC50 in data set [9] (setting [13]) was 6.00 to 7.00; in [3] (setting [10]) it was more than 7.00. The negative-log EC50 (pEC50) in [4] and in [5] was less than 4.52 in each case.

Compound `CC1(Oc2ccc(Cl)cc2)CCCN(CCOc2ccccc2F)C1` (stereo not shown) [Example 98a] had a pKi in [1] of more than 7.00. Also, the pIC50 in data set [2] and in data set [6] was more than 7.00 in each case. Moreover, the pEC50 in data set [4] and in data set [5] was less than 4.52 each time.

On to `CC1(Oc2ccc(Cl)cc2)CCCN(CCOc2ccc3scnc3c2)C1` (stereo not shown) [Example 99, 5-(2-(3-(4-chlorophenoxy)-3-methylpiperidin-1-yl)ethoxy)benzo[d]thiazole], for which the pKi in data set [1] is 6.00 to 7.00. Moreover, the results for the pIC50 in data set [9] (setting [13]) and in [3] (setting [10]) were 6.00 to 7.00 and more than 7.00, respectively. Besides, the negative logarithm of the EC50 (pEC50) in data set [4] and in [5] was less than 4.52 each time.

Turning to `FC(F)(F)c1ccccc1OCCN1CCC2(CC1)CC2c1ccccc1` (stereo not shown) [Example 102a], in data set [1], the pKi is 6.00 to 7.00. Besides, the pIC50 in data set [2] was 6.00 to 7.00; in [6], less than 4.52. Also, the pEC50 in [4] was more than 7.00; in data set [5] it was less than 4.52.

Compound `CC1(C(=O)c2ccccc2)CCN(CCOc2ccccc2C(F)(F)F)CC1` [Example 106, (4-Methyl-1-(2-(2-(trifluoromethyl)phenoxy)ethyl)piperidin-4-yl) (phenyl)methanone] had a pKi in data set [1] of more than 7.00. For the same compound, the pIC50 in data set [9] (setting [13]) is 6.00 to 7.00; in data set [3] (setting [10]), more than 7.00. In addition, the pEC50 in data set [4] and in data set [5] was less than 4.52 in each case.

For `CC1(Oc2ccccc2)CCN(CCOc2ccccc2OC(F)(F)F)CC1` [Example 110, 4-methyl-4-phenoxy-1-(2-(2-(trifluoromethoxy)phenoxy)ethyl) piperidine], the pKi in data set [1] is more than 7.00. Further, the pIC50 in [9] (setting [13]) was 6.00 to 7.00; in data set [3] (setting [10]), less than 4.52. Besides, the figures for the pEC50 in data set [4] and in data set [5] were more than 7.00 and less than 4.52, respectively.

On to `CN(c1ccccc1)C1(C)CCN(CCOc2ccccc2C(F)(F)F)CC1` [Example 112], for which the pKi in data set [1] was 6.00 to 7.00. Also, the figures for the pIC50 in data set [9] and in [3] were 6.00 to 7.00 and less than 4.52, respectively. Further, the pEC50 in data set [4] was 6.00 to 7.00; in data set [5], less than 4.52.

As to `O=C1CCc2ccc(OCCCCN3CCCN(c4cccc(Cl)c4Cl)CC3)nc2N1` [UNC9975, reference compound], in [2], the “β-arrestin Antagonist” value is on record as “B or A”. Also, in data set [4], the “cAMP Agonist” value is recorded as “B or A”.

As for `Clc1cccc(C2CCN(CCCOc3ccc4scnc4c3)CC2)c1Cl` [UNC9994, reference compound], in data set [2], the “β-arrestin Antagonist” value is on record as “B or C”. Also, the “β-arrestin Agonist” value in data set [5] is “B or C”.
